Assay [1] deals with PI3Kγ (p110γ) Recombinant Human Protein (Homo sapiens (Human), UniProt P48736). Nature of the assay: PI3K-γ Scintillation Proximity Assay. Particulars: read-out: PI3Kγ IC50. The class given is biochemical. The method, boiled down:
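Radiometric SPA readout: […] bound to WGA beads after overnight shaking, IC50 derived from % activity of DMSO control. Reaction used human p110γ, 2 μM ATP, 20 μM PIP2, pH 6.7 MOPS buffer with MgCl2, DTT, CHAPS, 2% DMSO, room temperature.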
Background: Scintillation proximity formats need no separation of bound from free tracer.

In assay [2] the test system is Phosphorylated Ribosomal Protein S6 (RPS6). Nature of the assay: THP-1 RPS6 ELISA Assay. The class given is cell-based, Human. As to conditions: Homo sapiens; THP-1 cells; read-out: PI3Kγ_THP1_RPS6_ELISA IC50. The method, boiled down:
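IC50 values come from a curve of percent inhibition against log compound concentration, using phospho-RPS6 ELISA (450 nm) on THP-1 lysates. Cells were serum-starved overnight, exposed to compound for 2 h at 37 °C, then challenged 15 min with 10 nM MCP-1.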
For orientation: An ELISA detects its analyte on a solid surface through an enzyme-linked reagent.

The target in assay [3] is PI3Kδ (p110δ/p85α) Recombinant Human Protein (Homo sapiens (Human), UniProt O00329). In words: PI3Kδ Scintillation Proximity Assay. The format is biochemical. The method, boiled down: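 IC50 was fitted to percent solvent-control activity from SPA scintillation counts after WGA bead capture of 33P-labelled lipid product. Reaction: 120 min, room temperature, 3.4 nM p110δ/p85α, 20 μM PIP2, 2 μM ATP with tracer, MOPS pH 6.7 buffer containing MgCl2, DTT, CHAPS, 2% DMSO.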

The values below come from patent US10479795B2 (Incyte Corporation, priority 2016, dated 2019).

Structures can show the parent of a compound that is named as a salt.

Chain of PI3Kδ (p110δ/p85α) Recombinant Human Protein (O00329 whole entry): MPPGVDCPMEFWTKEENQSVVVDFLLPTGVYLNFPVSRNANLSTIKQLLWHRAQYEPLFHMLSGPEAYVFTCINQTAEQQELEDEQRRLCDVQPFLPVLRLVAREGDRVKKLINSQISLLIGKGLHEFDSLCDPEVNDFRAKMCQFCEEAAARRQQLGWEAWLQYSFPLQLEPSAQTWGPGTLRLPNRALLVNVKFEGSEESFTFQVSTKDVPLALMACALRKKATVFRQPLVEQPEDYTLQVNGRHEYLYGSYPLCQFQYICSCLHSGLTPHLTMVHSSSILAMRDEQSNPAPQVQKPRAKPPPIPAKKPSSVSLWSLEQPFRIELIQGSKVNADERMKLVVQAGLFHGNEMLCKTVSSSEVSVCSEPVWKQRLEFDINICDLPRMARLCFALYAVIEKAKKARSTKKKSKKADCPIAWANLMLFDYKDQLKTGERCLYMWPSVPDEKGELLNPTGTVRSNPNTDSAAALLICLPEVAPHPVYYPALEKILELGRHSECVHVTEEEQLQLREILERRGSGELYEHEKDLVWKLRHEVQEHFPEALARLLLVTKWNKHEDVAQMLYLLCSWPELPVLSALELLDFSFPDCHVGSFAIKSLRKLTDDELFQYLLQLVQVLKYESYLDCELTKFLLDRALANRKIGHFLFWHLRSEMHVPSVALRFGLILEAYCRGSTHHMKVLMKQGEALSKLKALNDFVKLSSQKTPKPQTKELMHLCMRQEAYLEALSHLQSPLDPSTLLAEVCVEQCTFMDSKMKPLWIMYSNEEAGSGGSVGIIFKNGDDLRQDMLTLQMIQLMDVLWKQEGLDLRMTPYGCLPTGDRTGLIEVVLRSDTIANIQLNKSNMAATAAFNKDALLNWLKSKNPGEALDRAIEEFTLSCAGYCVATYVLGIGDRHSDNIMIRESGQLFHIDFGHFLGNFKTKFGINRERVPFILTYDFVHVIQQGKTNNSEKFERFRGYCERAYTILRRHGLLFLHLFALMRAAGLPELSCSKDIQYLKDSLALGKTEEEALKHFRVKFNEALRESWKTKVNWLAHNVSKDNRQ
Chain of PI3Kδ (p110δ/p85α) Recombinant Human Protein (P27986 whole entry partner): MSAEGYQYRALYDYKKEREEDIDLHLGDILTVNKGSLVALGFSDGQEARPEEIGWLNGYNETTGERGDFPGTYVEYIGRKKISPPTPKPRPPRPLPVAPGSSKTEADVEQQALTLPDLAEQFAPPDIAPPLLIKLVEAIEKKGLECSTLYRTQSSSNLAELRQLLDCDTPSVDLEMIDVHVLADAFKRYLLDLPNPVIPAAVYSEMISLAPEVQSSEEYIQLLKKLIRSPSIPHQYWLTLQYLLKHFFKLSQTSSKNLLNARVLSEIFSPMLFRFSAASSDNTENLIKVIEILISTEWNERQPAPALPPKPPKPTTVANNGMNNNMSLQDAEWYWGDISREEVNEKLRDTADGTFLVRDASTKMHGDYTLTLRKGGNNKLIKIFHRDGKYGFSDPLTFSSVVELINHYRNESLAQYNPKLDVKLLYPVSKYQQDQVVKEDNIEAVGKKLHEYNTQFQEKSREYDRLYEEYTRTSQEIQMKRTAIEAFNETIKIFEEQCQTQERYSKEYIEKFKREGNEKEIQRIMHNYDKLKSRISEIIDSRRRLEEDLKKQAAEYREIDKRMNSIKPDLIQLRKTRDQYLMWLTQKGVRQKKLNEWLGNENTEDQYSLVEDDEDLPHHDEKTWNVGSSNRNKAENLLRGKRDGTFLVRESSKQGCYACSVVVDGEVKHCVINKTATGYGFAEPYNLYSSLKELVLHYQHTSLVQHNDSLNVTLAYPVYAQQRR
Chain of PI3Kγ (p110γ) Recombinant Human Protein (P48736 whole entry): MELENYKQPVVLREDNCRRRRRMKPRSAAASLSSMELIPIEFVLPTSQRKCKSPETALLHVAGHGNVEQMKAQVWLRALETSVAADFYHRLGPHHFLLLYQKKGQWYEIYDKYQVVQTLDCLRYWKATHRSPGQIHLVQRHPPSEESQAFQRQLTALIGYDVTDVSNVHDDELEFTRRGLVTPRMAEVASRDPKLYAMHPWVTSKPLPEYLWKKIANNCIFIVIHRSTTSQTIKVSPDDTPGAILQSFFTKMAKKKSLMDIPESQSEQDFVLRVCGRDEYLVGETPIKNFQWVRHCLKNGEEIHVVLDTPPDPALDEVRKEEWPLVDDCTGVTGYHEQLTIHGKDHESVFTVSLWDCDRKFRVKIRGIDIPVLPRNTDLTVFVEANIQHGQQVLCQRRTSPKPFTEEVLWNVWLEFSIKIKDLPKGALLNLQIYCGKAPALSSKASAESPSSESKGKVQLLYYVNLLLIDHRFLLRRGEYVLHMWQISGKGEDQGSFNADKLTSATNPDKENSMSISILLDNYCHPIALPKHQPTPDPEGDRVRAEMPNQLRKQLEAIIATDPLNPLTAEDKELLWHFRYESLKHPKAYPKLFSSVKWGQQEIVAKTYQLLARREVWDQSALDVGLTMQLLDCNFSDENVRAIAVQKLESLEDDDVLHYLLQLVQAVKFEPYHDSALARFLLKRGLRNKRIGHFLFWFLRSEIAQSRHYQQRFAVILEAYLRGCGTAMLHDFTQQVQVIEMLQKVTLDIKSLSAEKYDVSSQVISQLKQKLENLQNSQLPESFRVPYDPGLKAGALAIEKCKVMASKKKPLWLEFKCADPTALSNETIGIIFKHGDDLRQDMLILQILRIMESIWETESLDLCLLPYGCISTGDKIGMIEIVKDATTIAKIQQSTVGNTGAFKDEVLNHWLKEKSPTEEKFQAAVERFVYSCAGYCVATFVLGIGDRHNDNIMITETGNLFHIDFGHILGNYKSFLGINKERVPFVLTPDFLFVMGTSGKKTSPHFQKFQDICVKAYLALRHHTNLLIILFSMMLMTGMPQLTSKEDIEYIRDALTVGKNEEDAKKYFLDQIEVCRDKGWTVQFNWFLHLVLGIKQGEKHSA

A word on the IC50: it is the concentration needed to halve the response being measured. For `Cc1ccc(S(=O)(=O)N2CCCC(CN)C2)cc1-c1cnc2c(N)nc(C(F)(F)F)cn12` (stereo not drawn) [Example 513, 3-(5-((3-(Aminomethyl)piperidin-1-yl)sulfonyl)-2-methylphenyl)-6-(trifluoromethyl)imidazo[1,2-a]pyrazin-8-amine trifluoroacetate], the IC50 is less than 100 nM in assay [1], 100 to 500 nM in assay [2] and 100 to 500 nM in assay [3].
On to `Cc1ccc(S(=O)(=O)N2CCCC(N)C2)cc1-c1cnc2c(N)nc(C(F)(F)F)cn12` (stereo not drawn) [Example 516, 3-(5-((3-Aminopiperidin-1-yl)sulfonyl)-2-methylphenyl)-6-(trifluoromethyl)imidazo[1,2-a]pyrazin-8-amine trifluoroacetate], for which the IC50 in assay [1], in assay [2] and in assay [3] was less than 100 nM in each case.
As to `Cc1ccc(S(=O)(=O)N[C@H]2CC[C@](C)(O)CC2)cc1-c1cnc2c(N)ccnn12` [Example 518, 3-(8-Aminoimidazo[1,2-b]pyridazin-3-yl)-N-((1r,4r)-4-hydroxy-4-methylcyclohexyl)-4-methylbenzenesulfonamide], the IC50 lay within 100 to 500 nM in assay [1], 100 to 500 nM in assay [2] and 500 to 2000 nM in assay [3].
As to `Cc1ccc(S(=O)(=O)NCC(C)(C)O)cc1-c1cnc2c(NCc3ccccc3)nc(C(F)(F)F)cn12` [Example 519, 3-(8-(Benzylamino)-6-(trifluoromethyl)imidazo[1,2-a]pyrazin-3-yl)-N-(2-hydroxy-2-methylpropyl)-4-methylbenzenesulfonamide], the IC50 is 100 to 500 nM in assay [1], more than 1000 nM in assay [2] and less than 100 nM in assay [3].
